In ChEMBL document CHEMBL1201862, “PubChem BioAssay data set” (2004):
The source made the active and inactive calls.

How the values were obtained:
[1] = target: T1, Heat shock factor protein 1 (Mus musculus, UniProt P38532); assay: decrease of HSF1-responsive luciferase luminescence – cell-based, NIH3T3, dose retest, confirmation (AID 2382); format: functional;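 also: NIH3T3 fibroblasts with HSF1-driven luciferase reporter stressed by proteasome inhibitor MG132; luminescence from HSF1-driven luciferase expression after 8 hours of MG132 stress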
T1 sequence (P38532 whole entry): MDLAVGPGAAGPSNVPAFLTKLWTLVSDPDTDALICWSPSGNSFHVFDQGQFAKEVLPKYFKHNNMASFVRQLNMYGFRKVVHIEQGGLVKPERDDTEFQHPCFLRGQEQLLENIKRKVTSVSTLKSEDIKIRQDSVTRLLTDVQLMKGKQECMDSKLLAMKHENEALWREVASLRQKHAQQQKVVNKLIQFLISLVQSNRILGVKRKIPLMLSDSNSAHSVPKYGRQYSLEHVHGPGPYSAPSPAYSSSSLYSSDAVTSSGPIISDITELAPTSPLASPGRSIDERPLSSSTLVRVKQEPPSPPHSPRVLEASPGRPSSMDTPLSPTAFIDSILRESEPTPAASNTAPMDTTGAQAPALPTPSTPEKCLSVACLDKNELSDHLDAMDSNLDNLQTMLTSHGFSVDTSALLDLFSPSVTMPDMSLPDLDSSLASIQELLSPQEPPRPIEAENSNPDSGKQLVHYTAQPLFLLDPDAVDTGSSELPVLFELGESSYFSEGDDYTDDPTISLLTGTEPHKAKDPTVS

[2] = target: T2, Replicative DNA helicase DnaB (Mycobacterium tuberculosis, UniProt P9WMR3); assay: DnaB intein splicing inhibitors, dose response, biochemical, cell-free fluorescence (AID 449749); format: functional
T2 sequence (P9WMR3 whole entry): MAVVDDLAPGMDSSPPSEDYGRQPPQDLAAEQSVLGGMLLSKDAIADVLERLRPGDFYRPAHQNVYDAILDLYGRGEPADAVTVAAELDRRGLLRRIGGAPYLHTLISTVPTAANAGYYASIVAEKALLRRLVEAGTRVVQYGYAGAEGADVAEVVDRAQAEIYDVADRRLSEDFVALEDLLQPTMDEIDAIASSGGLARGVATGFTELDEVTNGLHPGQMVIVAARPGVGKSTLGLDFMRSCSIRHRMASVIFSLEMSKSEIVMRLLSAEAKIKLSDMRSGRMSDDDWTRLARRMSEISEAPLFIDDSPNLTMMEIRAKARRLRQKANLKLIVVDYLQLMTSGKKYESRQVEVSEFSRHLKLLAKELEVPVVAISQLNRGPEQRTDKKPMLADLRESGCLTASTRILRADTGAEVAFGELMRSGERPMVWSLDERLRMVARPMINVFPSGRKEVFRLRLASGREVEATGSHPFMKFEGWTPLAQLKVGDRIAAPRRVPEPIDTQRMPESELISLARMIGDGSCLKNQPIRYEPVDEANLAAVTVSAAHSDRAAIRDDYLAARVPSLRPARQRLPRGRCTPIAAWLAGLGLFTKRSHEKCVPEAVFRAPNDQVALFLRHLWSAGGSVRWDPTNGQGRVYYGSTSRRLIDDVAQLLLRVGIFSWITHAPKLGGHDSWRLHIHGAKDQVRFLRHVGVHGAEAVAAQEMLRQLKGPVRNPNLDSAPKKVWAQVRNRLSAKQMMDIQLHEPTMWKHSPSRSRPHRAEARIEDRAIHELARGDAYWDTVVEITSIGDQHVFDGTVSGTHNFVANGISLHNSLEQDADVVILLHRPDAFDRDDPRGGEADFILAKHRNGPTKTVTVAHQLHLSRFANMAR

Protein RecA = target: T3, Protein RecA (Mycobacterium tuberculosis, UniProt P9WHJ3); assay: Fluorescence Cell-Free Homogeneous Dose Retest to Identify Inhibitors of RecA-Intein Splicing Activity. [Related pubchem assays (depositor defined):AID2097, AID2223, AID489010, AID492950]; format: functional
T3 sequence (P9WHJ3 whole entry): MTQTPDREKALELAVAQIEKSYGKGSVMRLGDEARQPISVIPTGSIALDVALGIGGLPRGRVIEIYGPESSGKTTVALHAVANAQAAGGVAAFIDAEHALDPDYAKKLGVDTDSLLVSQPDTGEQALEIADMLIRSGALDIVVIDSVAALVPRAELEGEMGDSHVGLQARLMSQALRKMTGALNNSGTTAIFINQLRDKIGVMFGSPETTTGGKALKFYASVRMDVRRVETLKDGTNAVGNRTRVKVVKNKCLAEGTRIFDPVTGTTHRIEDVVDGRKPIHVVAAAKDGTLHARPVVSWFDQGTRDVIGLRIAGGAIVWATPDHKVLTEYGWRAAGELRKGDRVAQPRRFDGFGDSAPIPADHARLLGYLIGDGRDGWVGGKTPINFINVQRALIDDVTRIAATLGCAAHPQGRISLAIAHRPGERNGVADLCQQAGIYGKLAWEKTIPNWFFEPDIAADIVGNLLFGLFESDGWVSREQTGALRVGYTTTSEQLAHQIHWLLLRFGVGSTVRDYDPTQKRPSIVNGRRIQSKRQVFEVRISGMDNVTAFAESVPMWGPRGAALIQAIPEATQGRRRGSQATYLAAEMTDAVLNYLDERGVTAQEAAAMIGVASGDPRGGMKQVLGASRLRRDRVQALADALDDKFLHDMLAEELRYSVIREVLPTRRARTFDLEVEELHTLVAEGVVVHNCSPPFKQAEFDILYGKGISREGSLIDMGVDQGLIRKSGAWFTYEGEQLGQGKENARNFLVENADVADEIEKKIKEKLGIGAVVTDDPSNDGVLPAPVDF

[3] = viability of PTEN-deleted HCT116 cells – cell-based, HCT116 PTEN knockout, dose response (AID 1047); format: functional;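 also: HCT116 colon tumor cells with PTEN knocked out; cells exposed to compound for 60 hours before readout; potency for loss of cell viability measured by luminescence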
Cytochrome P450 2D6 = Cytochrome P450 2D6 (Homo sapiens, UniProt P10635);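 also: CYP2D6 member of a cytochrome P450 panel assay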
Sequence of Cytochrome P450 2D6 (P10635 whole entry): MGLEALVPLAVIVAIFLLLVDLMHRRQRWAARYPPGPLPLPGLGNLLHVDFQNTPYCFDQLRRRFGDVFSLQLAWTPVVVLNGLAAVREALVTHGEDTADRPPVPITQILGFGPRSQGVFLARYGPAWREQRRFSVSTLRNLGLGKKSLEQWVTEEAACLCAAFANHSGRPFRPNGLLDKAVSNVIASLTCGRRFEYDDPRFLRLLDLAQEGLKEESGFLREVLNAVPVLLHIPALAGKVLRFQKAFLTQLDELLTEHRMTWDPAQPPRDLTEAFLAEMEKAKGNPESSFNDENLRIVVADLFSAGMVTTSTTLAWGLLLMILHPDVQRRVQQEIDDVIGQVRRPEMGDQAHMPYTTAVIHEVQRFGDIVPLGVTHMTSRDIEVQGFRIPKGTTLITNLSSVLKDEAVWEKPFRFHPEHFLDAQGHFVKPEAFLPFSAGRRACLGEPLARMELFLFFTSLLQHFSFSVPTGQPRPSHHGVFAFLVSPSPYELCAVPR

[4] = viability of HCT116 lacking mutant beta-catenin – cell-based, human colon tumor, dose response (AID 1045); format: functional;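 also: HCT116 colon tumor cells with beta catenin knocked out; cells exposed to compound for 60 hours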
[5] = NIH3T3 cell viability loss – ATP luminescence, mouse fibroblasts, counter-screen, dose response (AID 2010); format: functional, cell-based;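 also: cells exposed to compound for about 90 hours before reading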
[6] = Luminescence Cell-Based Dose Retest to Confirm Inhibitors of Cancer Stem Cells. [Related pubchem assays (depositor defined):AID2717, AID2721]; format: functional; details: Homo sapiens
[7] = Trypanosoma cruzi growth suppression in host cells – NIH3T3 host cells, beta-gal luminescence, confirmation (AID 2044); format: functional, cell-based;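 also: intracellular parasites grown in NIH/3T3 mouse fibroblasts as host cells; luminescent beta-galactosidase reporter signal from transgenic T. cruzi replicating inside host cells; inhibitors lower the luminescence signal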
[8] = target: T4, Corticotropin-releasing factor receptor 2/Corticotropin-releasing factor-binding protein (Homo sapiens, UniProt P24387+Q13324); assay: activators of CRF receptor 2 with binding protein – uHTS hits, confirmation (AID 602473); format: functional; details: read-out: EC50_Mean
T4 sequence (Q13324 whole entry): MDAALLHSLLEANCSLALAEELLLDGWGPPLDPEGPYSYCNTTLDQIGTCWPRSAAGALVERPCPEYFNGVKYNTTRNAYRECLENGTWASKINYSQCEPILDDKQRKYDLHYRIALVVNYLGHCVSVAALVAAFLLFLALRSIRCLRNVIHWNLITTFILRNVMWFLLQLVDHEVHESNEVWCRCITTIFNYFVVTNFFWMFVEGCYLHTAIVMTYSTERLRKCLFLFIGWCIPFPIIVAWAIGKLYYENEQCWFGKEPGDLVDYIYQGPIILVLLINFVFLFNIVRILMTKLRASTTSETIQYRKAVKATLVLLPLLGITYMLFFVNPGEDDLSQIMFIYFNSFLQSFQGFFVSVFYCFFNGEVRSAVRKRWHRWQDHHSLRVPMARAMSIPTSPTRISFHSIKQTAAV
T4 sequence (P24387 whole entry): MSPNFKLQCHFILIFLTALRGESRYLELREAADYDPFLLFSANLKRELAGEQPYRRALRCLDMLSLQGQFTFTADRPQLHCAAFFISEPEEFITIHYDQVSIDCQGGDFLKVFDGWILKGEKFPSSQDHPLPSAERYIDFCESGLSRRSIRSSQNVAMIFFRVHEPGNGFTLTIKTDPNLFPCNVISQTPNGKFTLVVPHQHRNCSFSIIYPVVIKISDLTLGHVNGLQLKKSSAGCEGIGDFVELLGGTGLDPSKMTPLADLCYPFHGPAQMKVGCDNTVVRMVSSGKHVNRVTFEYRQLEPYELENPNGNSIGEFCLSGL

[9] = viability of uninfected HEp-2 cells – cell-based, HTS, cytotoxicity control for RSV inhibitor project, dose response (AID 2410); format: functional; details: human respiratory syncytial virus
Cytochrome P450 2C9 = Cytochrome P450 2C9 (Homo sapiens, UniProt P11712)
Sequence of Cytochrome P450 2C9 (P11712 whole entry): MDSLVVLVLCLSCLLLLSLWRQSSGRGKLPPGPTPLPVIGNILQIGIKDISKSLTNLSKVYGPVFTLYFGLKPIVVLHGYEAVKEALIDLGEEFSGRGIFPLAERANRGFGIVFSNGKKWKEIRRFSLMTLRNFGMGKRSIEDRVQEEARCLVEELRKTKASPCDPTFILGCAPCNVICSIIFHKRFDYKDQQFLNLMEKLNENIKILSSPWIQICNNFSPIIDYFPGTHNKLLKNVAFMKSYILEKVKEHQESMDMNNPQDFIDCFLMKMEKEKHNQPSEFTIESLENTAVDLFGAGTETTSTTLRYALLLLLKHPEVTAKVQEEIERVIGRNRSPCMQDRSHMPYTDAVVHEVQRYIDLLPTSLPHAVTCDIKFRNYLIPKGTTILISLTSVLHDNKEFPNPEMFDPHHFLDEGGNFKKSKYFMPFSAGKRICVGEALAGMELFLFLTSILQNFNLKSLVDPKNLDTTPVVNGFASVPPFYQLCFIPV

[10] = target: T5, Rac GTPase-activating protein 1 (Homo sapiens, UniProt Q9H0H5); assay: blockers of MgcRacGAP-driven Rac1 GTP hydrolysis – biochemical, ADP Hunter fluorescence, primary and confirmatory, confirmation (AID 624330); format: functional
T5 sequence (Q9H0H5 whole entry): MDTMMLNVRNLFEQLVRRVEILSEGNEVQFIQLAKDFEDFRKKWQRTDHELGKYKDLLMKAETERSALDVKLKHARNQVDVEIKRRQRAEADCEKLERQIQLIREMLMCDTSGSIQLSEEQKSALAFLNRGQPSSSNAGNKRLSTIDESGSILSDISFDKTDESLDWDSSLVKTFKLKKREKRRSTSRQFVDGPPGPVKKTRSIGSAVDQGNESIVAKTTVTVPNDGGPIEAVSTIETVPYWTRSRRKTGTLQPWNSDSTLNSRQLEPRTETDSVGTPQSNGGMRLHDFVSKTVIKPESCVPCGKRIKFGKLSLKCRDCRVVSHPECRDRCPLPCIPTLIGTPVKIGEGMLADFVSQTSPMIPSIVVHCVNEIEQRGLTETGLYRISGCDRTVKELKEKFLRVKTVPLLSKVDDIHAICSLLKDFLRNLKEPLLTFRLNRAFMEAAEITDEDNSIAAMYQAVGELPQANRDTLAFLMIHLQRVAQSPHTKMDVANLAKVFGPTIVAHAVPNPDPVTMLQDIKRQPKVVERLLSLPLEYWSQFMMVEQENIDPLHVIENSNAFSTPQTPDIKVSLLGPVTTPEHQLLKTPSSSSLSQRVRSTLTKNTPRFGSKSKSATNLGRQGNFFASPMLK

Nn1c(SCc2ccccc2)nnc1-c1ccco1
EC50 [1]: > 195 µM (not active)

CCc1ccc(C(=O)NC(CCSC)C(=O)OC)cc1 (stereo unspecified)
EC50 [1]: > 195 µM (not active)

CCN1C(=O)/C(=C/Nc2ccccc2)OC1=S
EC50 [1]: > 195 µM (not active)

CCOc1ccccc1CNC(=O)CCn1ccc2cc(S(=O)(=O)N3CCCCC3)ccc21
EC50 [1]: > 195 µM (not active)

COCCCn1c(-c2ccco2)nc2ccccc2c1=O
EC50 [1]: > 195 µM (not active)

CCOc1ccccc1OCCOCCOc1c(Cl)cccc1Cl
EC50 [1]: > 195 µM (not active)

COCc1n[nH]c2c1C(c1ccc(OC)c(OC)c1)C(C#N)=C(N)O2 (stereo unspecified)
AC50 [2]: 9.47 µM (active) | EC50 (Protein RecA): 6.25 µM (active)

COc1ccc(-c2cc(C(F)(F)F)nc(N3CCN(C)CC3)n2)cc1OC
EC50 [3]: 29.2 µM (active) | AC50 (Cytochrome P450 2D6): 28.2 µM (inconclusive) | EC50 [4]: 30.2 µM (active)

NS(=O)(=O)c1ccc(NN=C2C(=O)NC(=S)NC2=O)cc1
AC50 [2]: 51.7 µM (active) | EC50 (Protein RecA): 15.5 µM (active)

CCOc1ccc(CNC(c2ccccc2)c2ccccc2)cc1
EC50 [1]: > 195 µM (not active)

O=C(Nc1ccc2c(c1)OCCO2)c1cccc2nc3ccccc3nc12
EC50 [5]: > 60 µM (not active) | EC50 [3]: 93.9 µM (active) | AC50 (Cytochrome P450 2D6): 8.91 µM (inconclusive) | AC50 [6]: 2.59 µM (active) | EC50 [4]: 47 µM (active) | EC50 [7]: 2.09 µM (active)

O=S(=O)(NCC1(N2CCOCC2)CCCCC1)c1ccc(Cl)cc1C(F)(F)F
EC50 [8]: 5.65 µM (active)

Cc1nn(Cc2c(F)c(F)c(F)c(F)c2F)c(C)c1NC(=O)c1c(-c2ccccc2)nn(-c2ccccc2)c1C
EC50 [3]: 21.9 µM (active) | EC50 [4]: 25.8 µM (active)

COc1ccccc1NCC(O)Cn1c2ccccc2c2ccccc21 (stereo unspecified)
EC50 [3]: 34.3 µM (active) | EC50 [4]: 43.6 µM (active)

Cc1ccc(NC(=O)COC(=O)Cn2cnc3ccccc32)cc1S(=O)(=O)N(C)C
EC50 [1]: > 195 µM (not active)

Cc1c(C(=O)Nc2ccncc2)sc2nc(-c3ccc(F)cc3)cn12
CC50 [9]: 5.09 µM (active) | EC50 [3]: 27.9 µM (active) | EC50 [4]: 29.3 µM (active)

O=C(Nc1cccc(Cl)c1Cl)c1snnc1-c1ccccc1
AC50 (Cytochrome P450 2C9): 3.16 µM (inconclusive) | EC50 [1]: > 195 µM (not active)

N#CC1=C(N)Oc2[nH]nc(CSc3ccccc3)c2C12C(=O)Nc1ccccc12 (stereo unspecified)
EC50 [1]: > 195 µM (not active)

CCOC(=O)c1sc(NC(=S)NC(=O)c2cccc(OC)c2)nc1C
EC50 [8]: 15 µM (active)

CC1(C)CC2CC(C)(CN2C(=O)CCCN2C(=O)c3ccccc3C2=O)C1 (stereo unspecified)
EC50 [1]: > 195 µM (not active)

Cc1ccc2oc(=O)c(/C=C(\O)c3ccccc3)nc2c1
EC50 [8]: 12.1 µM (active) | IC50 [10]: 48.6 µM (active)

COC(=O)c1[nH]c2ccc(C)cc2c1NC(=O)NC1CCCCC1
EC50 [3]: 20.2 µM (active) | EC50 [4]: 26.5 µM (active)

Clc1ccc(NN(Cc2ccncc2)c2ccc(Cl)cc2)cc1
EC50 [8]: > 53 µM (inactive)

COCCNC(=S)N/N=C/c1ccc(-c2ccc([N+](=O)[O-])cc2)o1
EC50 [8]: 5.95 µM (active)

CCOC(=O)c1ccc(NC(=S)NC(=O)C2CCCC2)cc1
EC50 [1]: > 195 µM (not active)
